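Tested at 5 concentrations; 48 h exposure; 96-well plates; endpoints linearly interpolated, else capped at highest concentration. TGI denotes the concentration required for complete inhibition of growth.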
Columns and labels:
Assay in all cases: NCI-60 cell line screen, 48 h
HT29 colon = system: HT29 colon
BT-549 breast = system: BT-549 breast
SR leukemia = system: SR leukemia
MALME-3M melanoma = system: MALME-3M melanoma
HOP-92 NSCLC = system: HOP-92 NSCLC
SK-MEL-2 melanoma = system: SK-MEL-2 melanoma
MDA-MB-231 breast = system: MDA-MB-231 breast
ACHN renal = system: ACHN renal
COLO 205 colon = system: COLO 205 colon
PC-3 prostate = system: PC-3 prostate
NCI-H23 lung = system: NCI-H23 lung
SK-OV-3 ovarian = system: SK-OV-3 ovarian
KM12 colon = system: KM12 colon
NCI/ADR-RES ovarian = system: NCI/ADR-RES ovarian
MDA-MB-435 = system: MDA-MB-435
A498 renal = system: A498 renal
HS 578T breast = system: HS 578T breast
A549 NSCLC = system: A549 NSCLC
SNB-19 CNS = system: SNB-19 CNS
MCF7 breast = system: MCF7 breast
OVCAR-3 ovarian = system: OVCAR-3 ovarian
SF-268 CNS = system: SF-268 CNS
TK-10 renal = system: TK-10 renal
OVCAR-5 ovarian = system: OVCAR-5 ovarian
SF-295 CNS = system: SF-295 CNS
HCT-15 colon = system: HCT-15 colon
SK-MEL-28 melanoma = system: SK-MEL-28 melanoma
UACC-257 melanoma = system: UACC-257 melanoma
UO-31 renal = system: UO-31 renal
SNB-75 CNS = system: SNB-75 CNS
CCRF-CEM leukemia = system: CCRF-CEM leukemia
MDA-N = system: MDA-N
HOP-62 NSCLC = system: HOP-62 NSCLC
EKVX NSCLC = system: EKVX NSCLC
SF-539 CNS = system: SF-539 CNS
OVCAR-4 ovarian = system: OVCAR-4 ovarian
NCI-H522 lung = system: NCI-H522 lung
RXF 393 renal = system: RXF 393 renal
OVCAR-8 ovarian = system: OVCAR-8 ovarian
786-0 renal = system: 786-0 renal
U251 CNS = system: U251 CNS
MOLT-4 leukemia = system: MOLT-4 leukemia
SK-MEL-5 melanoma = system: SK-MEL-5 melanoma
T-47D breast = system: T-47D breast
HL-60(TB) leukemia = system: HL-60(TB) leukemia
M14 melanoma = system: M14 melanoma
CAKI-1 renal = system: CAKI-1 renal
UACC-62 melanoma = system: UACC-62 melanoma
HCT-116 colon = system: HCT-116 colon
SW-620 colon = system: SW-620 colon
K-562 leukemia = system: K-562 leukemia
DU-145 prostate = system: DU-145 prostate
LOX IMVI melanoma = system: LOX IMVI melanoma
NCI-H226 lung = system: NCI-H226 lung
RPMI-8226 leukemia = system: RPMI-8226 leukemia
NCI-H460 lung = system: NCI-H460 lung
SN12C renal = system: SN12C renal
IGROV1 ovarian = system: IGROV1 ovarian
HCC-2998 colon = system: HCC-2998 colon

`CNC(=O)[C@H](Cc1ccccc1)NC(=O)N(CCC#N)CCN(C(=O)N[C@@H](Cc1ccccc1)C(=O)OC)c1ccccc1` gave a TGI (HT29 colon) greater than 100 µM, a TGI (BT-549 breast) greater than 100 µM and a TGI (SR leukemia) greater than 100 µM. It also gave a TGI (MALME-3M melanoma) greater than 100 µM, a TGI (HOP-92 NSCLC) greater than 100 µM and a TGI (SK-MEL-2 melanoma) greater than 100 µM. It also gave a TGI (MDA-MB-231 breast) greater than 100 µM, a TGI (ACHN renal) greater than 100 µM and a TGI (COLO 205 colon) greater than 100 µM. The TGI (PC-3 prostate) was greater than 100 µM, the TGI (NCI-H23 lung) was greater than 100 µM and the TGI (SK-OV-3 ovarian) was greater than 100 µM. It also gave a TGI (KM12 colon) greater than 100 µM, a TGI (NCI/ADR-RES ovarian) greater than 100 µM and a TGI (MDA-MB-435) greater than 100 µM. It also gave a TGI (A498 renal) greater than 100 µM, a TGI (HS 578T breast) greater than 100 µM and a TGI (A549 NSCLC) greater than 100 µM. It also gave a TGI (SNB-19 CNS) greater than 100 µM, a TGI (MCF7 breast) greater than 100 µM and a TGI (OVCAR-3 ovarian) greater than 100 µM. For the same compound, the TGI (SF-268 CNS) was greater than 100 µM, the TGI (TK-10 renal) was greater than 100 µM and the TGI (OVCAR-5 ovarian) was greater than 100 µM. For the same compound, the TGI (SF-295 CNS) was greater than 100 µM, the TGI (HCT-15 colon) was greater than 100 µM and the TGI (SK-MEL-28 melanoma) was greater than 100 µM. It also gave a TGI (UACC-257 melanoma) greater than 100 µM, a TGI (UO-31 renal) greater than 100 µM and a TGI (SNB-75 CNS) greater than 100 µM. For the same compound, the TGI (CCRF-CEM leukemia) was greater than 100 µM, the TGI (MDA-N) was greater than 100 µM and the TGI (HOP-62 NSCLC) was greater than 100 µM. For the same compound, the TGI (EKVX NSCLC) was greater than 100 µM, the TGI (SF-539 CNS) was greater than 100 µM and the TGI (OVCAR-4 ovarian) was greater than 100 µM. For the same compound, the TGI (NCI-H522 lung) was greater than 100 µM, the TGI (RXF 393 renal) was greater than 100 µM and the TGI (OVCAR-8 ovarian) was greater than 100 µM. The TGI (786-0 renal) was greater than 100 µM, the TGI (U251 CNS) was greater than 100 µM and the TGI (MOLT-4 leukemia) was greater than 100 µM. The TGI (SK-MEL-5 melanoma) was greater than 100 µM, the TGI (T-47D breast) was greater than 100 µM and the TGI (HL-60(TB) leukemia) was greater than 100 µM. For the same compound, the TGI (M14 melanoma) was greater than 100 µM, the TGI (CAKI-1 renal) was greater than 100 µM and the TGI (UACC-62 melanoma) was greater than 100 µM. For the same compound, the TGI (HCT-116 colon) was greater than 100 µM, the TGI (SW-620 colon) was greater than 100 µM and the TGI (K-562 leukemia) was greater than 100 µM. The TGI (DU-145 prostate) was greater than 100 µM, the TGI (LOX IMVI melanoma) was greater than 100 µM and the TGI (NCI-H226 lung) was greater than 100 µM. For the same compound, the TGI (RPMI-8226 leukemia) was greater than 100 µM and the TGI (NCI-H460 lung) was greater than 100 µM.

Compound `CN(C)S(=O)(=O)c1ccc2[nH]c(O)c(C3=Nc4ccccc4C3=O)c2c1` has a TGI (HT29 colon) greater than 100 µM, a TGI (BT-549 breast) of 28.9 µM and a TGI (SR leukemia) of 35.9 µM. For the same compound, the TGI (MALME-3M melanoma) was greater than 100 µM, the TGI (HOP-92 NSCLC) was 46.8 µM and the TGI (SN12C renal) was greater than 100 µM. For the same compound, the TGI (SK-MEL-2 melanoma) was 44.7 µM, the TGI (MDA-MB-231 breast) was 52.3 µM and the TGI (ACHN renal) was 33.7 µM. It also gave a TGI (COLO 205 colon) greater than 100 µM, a TGI (PC-3 prostate) of 90.4 µM and a TGI (IGROV1 ovarian) of 27.4 µM. It also gave a TGI (NCI-H23 lung) of 29.9 µM, a TGI (SK-OV-3 ovarian) of 28.5 µM and a TGI (KM12 colon) greater than 100 µM. It also gave a TGI (NCI/ADR-RES ovarian) greater than 100 µM, a TGI (HCC-2998 colon) greater than 100 µM and a TGI (MDA-MB-435) greater than 100 µM. It also gave a TGI (A498 renal) of 97.4 µM, a TGI (HS 578T breast) of 76.9 µM and a TGI (A549 NSCLC) greater than 100 µM. It also gave a TGI (SNB-19 CNS) of 42.6 µM, a TGI (MCF7 breast) greater than 100 µM and a TGI (OVCAR-3 ovarian) greater than 100 µM. The TGI (SF-268 CNS) was 38.7 µM, the TGI (TK-10 renal) was 40 µM and the TGI (OVCAR-5 ovarian) was greater than 100 µM. The TGI (SF-295 CNS) was 26.7 µM, the TGI (HCT-15 colon) was greater than 100 µM and the TGI (SK-MEL-28 melanoma) was greater than 100 µM. It also gave a TGI (UACC-257 melanoma) greater than 100 µM, a TGI (UO-31 renal) greater than 100 µM and a TGI (SNB-75 CNS) of 10.3 µM. The TGI (CCRF-CEM leukemia) was greater than 100 µM, the TGI (MDA-N) was greater than 100 µM and the TGI (HOP-62 NSCLC) was 47.2 µM. For the same compound, the TGI (EKVX NSCLC) was greater than 100 µM, the TGI (OVCAR-4 ovarian) was greater than 100 µM and the TGI (NCI-H522 lung) was greater than 100 µM. For the same compound, the TGI (RXF 393 renal) was 14.2 µM, the TGI (OVCAR-8 ovarian) was greater than 100 µM and the TGI (786-0 renal) was 50.3 µM. It also gave a TGI (U251 CNS) of 24.9 µM, a TGI (MOLT-4 leukemia) of 36.2 µM and a TGI (SK-MEL-5 melanoma) greater than 100 µM. It also gave a TGI (T-47D breast) greater than 100 µM, a TGI (M14 melanoma) greater than 100 µM and a TGI (CAKI-1 renal) greater than 100 µM. It also gave a TGI (UACC-62 melanoma) of 34.9 µM, a TGI (HCT-116 colon) of 70.1 µM and a TGI (SW-620 colon) greater than 100 µM. For the same compound, the TGI (K-562 leukemia) was greater than 100 µM, the TGI (DU-145 prostate) was 94 µM and the TGI (LOX IMVI melanoma) was greater than 100 µM. It also gave a TGI (NCI-H226 lung) of 81.3 µM, a TGI (RPMI-8226 leukemia) greater than 100 µM and a TGI (NCI-H460 lung) of 97.5 µM.

— PubChem BioAssay (NCI)
